Columns and labels:
[1] = test system: HCT116 cells with (+/+) p21 genes; experiment: Apoptosis after drug treatment (phase contrast, H33258 staining, TUNEL), parental cells; type: cell-based, human; conditions: for cell fate (apoptosis) by phase contrast microscopy and H33258 staining: etoposide 5 ug/ml, camptothecan 0.1 ug/ml, time course
Protocol: (§1) HCT116 cells with (+/+) or without (−/−) p21 genes were generated by homologous recombination. Logarithmically-growing cells in McCoy's 5A medium with 10% fetal calf serum were treated with Adriamycin (0.2 ug/ml) for 90 hours. In FIG. 1b, the adherent cells were harvested by trypsinization and combined with cells floating in the media. After washing with Hanks Buffered Saline (HBS; Life Technologies), cells were resuspended in 40 ul HBS and added to 360 ul of a solution containing 0.7% NP-40, 4.7% formaldehyde and 11 ug/ml H133258 in phosphate buffered saline (PBS). Cells were then viewed under UV excitation and photographed with a Nikon Labophot microscope. In FIG. 1c, adherent cells were fixed in 1% formaldehyde, then incubated in the presence of exogenous terminal transferase and biotin-11-dUTP as previously described^7. Labeled cells were detected by immunoperoxidase staining (Vector).
(§2) Cells were grown, fixed, and stained as described in Example 1. Irradiation was delivered at 1 Gy/minute using a ^137Cs source. Apoptotic cells were recognized as condensed, punctate nuclei (examples in FIG. 1d) or ghosts with faintly stained, degrading nuclei. At least 200 cells were counted for each time point, and the experiment was repeated with results virtually identical to those shown. The error bars represent the Poisson standard deviation determined by taking the square root of counted events and converting it to percent abundance. All counting was done in a blinded fashion. The (+/−) cells contained one normal p21 allele and one allele deleted by homologous recombination^5.

[2] = test system: HCT116 cells without (−/−) p21 genes; experiment: Apoptosis after drug treatment (phase contrast, H33258 staining, TUNEL), p21-deficient cells; type: cell-based, human
Protocol: as §1
as §2, with “At least 200 cells were counted for each time point, and the experiment was repeated with results virtually identical to those shown.” left out

[3] = test system: HCT116 (+/−) cells, one normal p21 allele and one deleted; experiment: Apoptosis after drug treatment, heterozygous cells; type: cell-based, human; conditions: Adriamycin 0.2 ug/ml, etoposide 5 ug/ml, camptothecan 0.1 ug/ml
Protocol: as §1, §2

HCT116 p21+/+ cells = experiment: Cell cycle analysis by flow cytometry, parental cells; conditions: Adriamycin 0.2 ug/ml
HCT116 p21−/− cells = experiment: Cell cycle analysis by flow cytometry, p21-deficient cells; conditions: Adriamycin 0.2 ug/ml
[4] = p21−/− cells, Adriamycin 0.2 ug/ml, 90 hours
[5] = longer treatments (beyond 30 hours)

Compound | cell morphology, phase contrast microscopy ([1]; Adriamycin 0.2 ug/ml, 90 hours) | nuclear morphology after H33258 staining ([1]; Adriamycin 0.2 ug/ml, 90 hours) | response in a second, independently isolated p21−/− clone ([2]; Adriamycin 0.2 ug/ml, time course of apoptosis) | TUNEL staining of DNA breaks characteristic of apoptosis [2, 4] | cell morphology, phase contrast microscopy [2, 4] | nuclear morphology after H33258 staining [2, 4] | kinetics of apoptosis compared with parental cells [3] | cell cycle distribution by flow cytometry (HCT116 p21+/+ cells; 30 hours of exposure) | flow cytometry profile (HCT116 p21+/+ cells; [5]) | cell cycle distribution by flow cytometry (HCT116 p21−/− cells; 30 hours of exposure) | DNA content by flow cytometry (HCT116 p21−/− cells; [5]) | cell fate (apoptosis) by phase contrast microscopy and H33258 staining [1] | cell fate (apoptosis) by phase contrast microscopy and H33258 staining ([2]; p21−/− cells, etoposide 5 ug/ml, time course)
COc1cccc2c1C(=O)c1c(O)c3c(c(O)c1C2=O)C[C@@](O)(C(=O)CO)C[C@@H]3O[C@H]1C[C@H](N)[C@H](O)[C@H](C)O1 [Adriamycin] | remained attached to the plate and appeared morphologically normal | homogeneous and round | identical | stained intensely by TUNEL | shrank, rounded, and detached from the dish, suggesting apoptosis | classic condensed and punctate nuclear morphology | behaved similarly to the parental cells | blocked in G1 and G2 phases, with few cells in S | remained largely unchanged | a nearly pure population of G2-arrested cells was observed | began to accumulate DNA in excess of 4C, then died |  | 
CC[C@@]1(O)C(=O)OCc2c1cc1n(c2=O)Cc2cc3ccccc3nc2-1 [camptothecan] |  |  |  |  |  |  | revealed a heterozygote effect |  |  |  |  | eventually underwent apoptosis, but this was significantly delayed compared to p21-deficient cells | 
COc1cc([C@@H]2c3cc4c(cc3[C@@H](O[C@@H]3O[C@@H]5CO[C@@H](C)O[C@H]5[C@H](O)[C@H]3O)[C@H]3COC(=O)[C@H]23)OCO4)cc(OC)c1O [etoposide] |  |  |  |  |  |  | behaved similarly to the parental cells |  |  |  |  | remained healthy | died
